{"source": "patent US7714006B1", "about": "“Methods of modifying the bioavailability of metaxalone” (King Pharmaceuticals Research & Development, Inc., priority 2001, dated 2010)", "key": {"[1]": {"experiment": "Effects of age and gender on PK parameters, study 101 (1×400 mg with and without food)", "assay_type": "in vivo, human", "procedure": "(§1) In addition, the robustness of the results are assessed by applying similar analysis approaches to the data from two other studies: • Study AN151607-101 (hereafter referred to as the 101 study): a two-period, randomized crossover trial with treatment conditions 1×400 mg with food and 1×400 mg without food; • Study AN151607-106 (hereafter referred to as the 106 study): a single dose trial with treatment condition 2×400 mg without food.\nStudy 101 was a two-period randomized crossover trial conducted in 42 healthy volunteers. The mean age was 23.8 years, with a range from 18 to 42 years. The treatment conditions were 1×400 mg with food and 1×400 mg without food. Because the treatments were not the same as in the 103 and 105 studies (1×400 mg in study 101, as opposed to 2×400 mg in studies 103 and 105), and additionally because the blood sample collection schedules were not the same, it is not possible to combine the 101 data with the data from studies 103 and 105. However, it is possible to independently investigate the effects of age on fed and fasted values of the PK parameters in order to determine if the effects are of similar magnitude and direction to those found in the 103 and 105 studies.\nFirst, Pearson and Spearman correlation coefficients between age and each of the three PK parameters were computed. The correlation coefficients and two-sided p-values from the test of the null hypothesis of no association are shown below in TABLE VIa:\n(§2) Linear regression models using the natural logarithm of each of the three PK parameters as the dependent variable and age as the independent variable were fitted in order to estimate the magnitude of the associations with age.\nStudy 101 was a two-period randomized crossover trial conducted in 42 healthy volunteers (31 males, 11 females). The mean age was 23.8 years, with a range from 18 to 42 years. The treatment conditions were 1×400 mg with food and 1×400 mg without food. Because the treatments were not the same as in the 103 and 105 studies, and additionally because the blood sample collection schedules were not the same, it is not possible to combine the 101 data with the data from studies 103 and 105. However, it is reasonable to independently investigate the effects of age and gender on the fed and fasted values of the PK parameters in order to determine if the effects are of similar magnitude and direction to those found in the 103 and 105 studies.\nThe same regression modeling strategy as was described in Sections 3.2 and 3.3 was also applied. The initial regression models with a gender effect and separate age effects for males and females yielded positive estimates of the age effect for males and negative estimates for females. This was consistent across all three PK parameters. However, none of the age effects was statistically significant and, in addition, there was no significant evidence of interaction between age and gender (all p-values exceeded 0.10). […]"}, "[2]": {"experiment": "Effects of age and gender on fasted PK parameters, study 106 (2×400 mg without food)", "assay_type": "in vivo, human", "procedure": "as §1\n(§3) Study 106 was a single dose trial conducted in 48 healthy volunteers. The mean age was 24.7 years, with a range from 18 to 50 years. The single treatment condition in this study was 2×400 mg without food. Blood samples for PK analyses were obtained at the same time points as in the 103 and 105 studies.\nFirst, Pearson and Spearman correlation coefficients between age and each of the three PK parameters were computed. The correlation coefficients and two-sided p-values from the test of the null hypothesis of no association are shown below in TABLE VIIIa:\nas §2\nas §3, with “volunteers (24 males, 24 females).” for “volunteers.”\nThe same regression modeling strategy as was described in Sections 3.2 and 3.3 was also used. In the initial regression models with a gender effect and separate age effects for males and females, the parameter estimates for all three variables were negative for males and positive for females. In addition, the age effect in females was statistically significant for ln(AUC(last)) and ln(AUC(inf)). However, the tests of equality between the age effects for males and females (i.e., the age-by-gender interaction) were not statistically significant for any of the three variables; the p-values ranged from 0.08 to 0.11."}}}
{"smiles": "Cc1cc(C)cc(OCC2CNC(=O)O2)c1", "note": "(centres unmarked) [metaxalone, 5-[(3,5-dimethylphenoxy)methyl]-2 oxazolidinone]", "values": [{"measurement": "Proportion of variability explained by age, ln(AUC(inf))", "setting": "[1]; fasted", "value": 7.7, "unit": "%"}, {"measurement": "Proportion of variability explained by age, ln(Cmax)", "setting": "[1]; fasted", "value": 13.4, "unit": "%"}, {"measurement": "Pearson correlation, age vs ln(AUC(inf))", "setting": "[1]; fasted, females n=11", "value": 0.208}, {"measurement": "Pearson correlation, age vs ln(AUC(last))", "setting": "[1]; fasted, females n=11", "value": 0.284}, {"measurement": "Pearson correlation, age vs ln(Cmax)", "setting": "[1]; fasted, females n=11", "value": 0.309}, {"measurement": "Spearman correlation, age vs ln(AUC(inf))", "setting": "[1]; fasted, females n=11", "value": 0.235}, {"measurement": "Spearman correlation, age vs ln(AUC(last))", "setting": "[1]; fasted, females n=11", "value": 0.406}, {"measurement": "Spearman correlation, age vs ln(Cmax)", "setting": "[1]; fasted, females n=11", "value": 0.525}, {"measurement": "Pearson correlation, age vs ln(AUC(inf))", "setting": "[1]; fasted, males n=31", "value": 0.287}, {"measurement": "Pearson correlation, age vs ln(AUC(last))", "setting": "[1]; fasted, males n=31", "value": 0.279}, {"measurement": "Pearson correlation, age vs ln(Cmax)", "setting": "[1]; fasted, males n=31", "value": 0.384}, {"measurement": "Spearman correlation, age vs ln(AUC(inf))", "setting": "[1]; fasted, males n=31", "value": 0.115}, {"measurement": "Spearman correlation, age vs ln(AUC(last))", "setting": "[1]; fasted, males n=31", "value": 0.127}, {"measurement": "Spearman correlation, age vs ln(Cmax)", "setting": "[1]; fasted, males n=31", "value": 0.206}, {"measurement": "Pearson correlation, age vs ln(AUC(inf))", "setting": "[1]; fasted, n=42", "value": 0.277}, {"measurement": "Pearson correlation, age vs ln(AUC(last))", "setting": "[1]; fasted, n=42", "value": 0.289}, {"measurement": "Pearson correlation, age vs ln(Cmax)", "setting": "[1]; fasted, n=42", "value": 0.366}, {"measurement": "Spearman correlation, age vs ln(AUC(inf))", "setting": "[1]; fasted, n=42", "value": 0.146}, {"measurement": "Spearman correlation, age vs ln(AUC(last))", "setting": "[1]; fasted, n=42", "value": 0.161}, {"measurement": "Spearman correlation, age vs ln(Cmax)", "setting": "[1]; fasted, n=42", "value": 0.235}, {"measurement": "Proportion of variability explained by age, ln(AUC(inf))", "setting": "[1]; fed", "value": 3, "unit": "%"}, {"measurement": "Proportion of variability explained by age, ln(AUC(last))", "setting": "[1]; fed", "value": 3, "unit": "%"}, {"measurement": "Proportion of variability explained by age, ln(Cmax)", "setting": "[1]; fed", "value": 1, "unit": "%"}, {"measurement": "Pearson correlation, age vs ln(AUC(inf))", "setting": "[1]; fed, females n=11", "value": "−0.165"}, {"measurement": "Pearson correlation, age vs ln(AUC(last))", "setting": "[1]; fed, females n=11", "value": "−0.188"}, {"measurement": "Pearson correlation, age vs ln(Cmax)", "setting": "[1]; fed, females n=11", "value": "−0.396"}, {"measurement": "Spearman correlation, age vs ln(AUC(inf))", "setting": "[1]; fed, females n=11", "value": "−0.244"}, {"measurement": "Spearman correlation, age vs ln(AUC(last))", "setting": "[1]; fed, females n=11", "value": "−0.295"}, {"measurement": "Spearman correlation, age vs ln(Cmax)", "setting": "[1]; fed, females n=11", "value": "−0.645"}, {"measurement": "Pearson correlation, age vs ln(AUC(inf))", "setting": "[1]; fed, males n=31", "value": 0.268}, {"measurement": "Pearson correlation, age vs ln(AUC(last))", "setting": "[1]; fed, males n=31", "value": 0.271}, {"measurement": "Pearson correlation, age vs ln(Cmax)", "setting": "[1]; fed, males n=31", "value": 0.234}, {"measurement": "Spearman correlation, age vs ln(AUC(inf))", "setting": "[1]; fed, males n=31", "value": 0.088}, {"measurement": "Spearman correlation, age vs ln(AUC(last))", "setting": "[1]; fed, males n=31", "value": 0.094}, {"measurement": "Spearman correlation, age vs ln(Cmax)", "setting": "[1]; fed, males n=31", "value": 0.169}, {"measurement": "Pearson correlation, age vs ln(AUC(inf))", "setting": "[1]; fed, n=42", "value": 0.186}, {"measurement": "Pearson correlation, age vs ln(AUC(last))", "setting": "[1]; fed, n=42", "value": 0.179}, {"measurement": "Pearson correlation, age vs ln(Cmax)", "setting": "[1]; fed, n=42", "value": 0.102}, {"measurement": "Spearman correlation, age vs ln(AUC(inf))", "setting": "[1]; fed, n=42", "value": 0.029}, {"measurement": "Spearman correlation, age vs ln(AUC(last))", "setting": "[1]; fed, n=42", "value": 0.022}, {"measurement": "Spearman correlation, age vs ln(Cmax)", "setting": "[1]; fed, n=42", "value": "−0.009"}, {"measurement": "Pearson correlation, age vs ln(AUC(inf))", "setting": "[2]; females n=24", "value": 0.416}, {"measurement": "Pearson correlation, age vs ln(AUC(last))", "setting": "[2]; females n=24", "value": 0.431}, {"measurement": "Pearson correlation, age vs ln(Cmax)", "setting": "[2]; females n=24", "value": 0.336}, {"measurement": "Spearman correlation, age vs ln(AUC(inf))", "setting": "[2]; females n=24", "value": 0.368}, {"measurement": "Spearman correlation, age vs ln(AUC(last))", "setting": "[2]; females n=24", "value": 0.428}, {"measurement": "Spearman correlation, age vs ln(Cmax)", "setting": "[2]; females n=24", "value": 0.279}, {"measurement": "Pearson correlation, age vs ln(AUC(inf))", "setting": "[2]; males n=24", "value": "−0.184"}, {"measurement": "Pearson correlation, age vs ln(AUC(last))", "setting": "[2]; males n=24", "value": "−0.178"}, {"measurement": "Pearson correlation, age vs ln(Cmax)", "setting": "[2]; males n=24", "value": "−0.202"}, {"measurement": "Spearman correlation, age vs ln(AUC(inf))", "setting": "[2]; males n=24", "value": "−0.368"}, {"measurement": "Spearman correlation, age vs ln(AUC(last))", "setting": "[2]; males n=24", "value": "−0.365"}, {"measurement": "Spearman correlation, age vs ln(Cmax)", "setting": "[2]; males n=24", "value": "−0.316"}, {"measurement": "Pearson correlation, age vs ln(AUC(inf))", "setting": "[2]; n=48", "value": 0.348}, {"measurement": "Pearson correlation, age vs ln(AUC(last))", "setting": "[2]; n=48", "value": 0.349}, {"measurement": "Pearson correlation, age vs ln(Cmax)", "setting": "[2]; n=48", "value": 0.260}, {"measurement": "Spearman correlation, age vs ln(AUC(inf))", "setting": "[2]; n=48", "value": 0.173}, {"measurement": "Spearman correlation, age vs ln(AUC(last))", "setting": "[2]; n=48", "value": 0.189}, {"measurement": "Spearman correlation, age vs ln(Cmax)", "setting": "[2]; n=48", "value": 0.125}]}
